In US20240174618A1, “SUBSTITUTED (2-HETEROARYLOXYPHENYL)SULFONATES, SALTS THEREOF AND THEIR USE AS HERBICIDAL AGENTS” (Bayer Aktiengesellschaft, priority 2021, published 2024):

Key:
Format in all cases: in vivo
[1] = tested on: Amaranthus retroflexus (AMARE); assay: A. Herbicidal pre-emergence efficacy, AMARE
Outline: (§1)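 Pre-emergence soil-surface spray in sandy loam pots, WP/EC in water plus 0.5% additive, 600 L/ha. Visual % damage rating after about 3 weeks in greenhouse vs. untreated; 0% = control-like, 100% = dead plants. Rates up to 1280 g/ha.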

[2] = tested on: Veronica persica (VERPE); assay: C. Herbicidal pre-emergence efficacy, VERPE; details: scored after about 3 weeks
Outline: (§2)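 Pre-emergence test: formulated compounds sprayed as aqueous suspension or emulsion with 0.5% additive at 600 l/ha onto soil covering sown seeds, at rates corresponding to 320 g/ha or less. After about 3 weeks in greenhouse, efficacy scored visually as percent versus untreated controls (100% = plants dead).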

[3] = tested on: Viola tricolor (VIOTR); assay: C. Herbicidal pre-emergence efficacy, VIOTR
Outline: as §2

[4] = tested on: Kochia scoparia (KCHSC); assay: A. Herbicidal pre-emergence efficacy, KCHSC
Outline: as §1

[5] = tested on: Amaranthus retroflexus (AMARE); assay: C. Herbicidal pre-emergence efficacy, AMARE; details: scored after about 3 weeks
Outline: as §2

[6] = tested on: Poa annua (POAAN); assay: B. Herbicidal post-emergence efficacy, POAAN
Outline: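 Visual percent efficacy relative to untreated controls (0% unaffected, 100% dead), scored roughly 3 weeks after foliar spraying of one-leaf-stage pot-grown plants with WP or EC preparations at application rates up to 1280 g/ha in 600 L/ha water containing 0.5% additive.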

[7] = tested on: Lolium rigidum (LOLRI); assay: C. Herbicidal pre-emergence efficacy, LOLRI; details: 320 g/ha, scored after about 3 weeks
Outline: as §2

[8] = tested on: Abutilon theophrasti (ABUTH); assay: A. Herbicidal pre-emergence efficacy, ABUTH; details: scored visually after about 3 weeks vs untreated controls
Outline: as §1

[9] = 80 g/ha, scored visually after about 3 weeks vs untreated controls
[10] = pre-emergence, dosage 1280 g/ha

Row | SMILES | Pre-emergence efficacy against AMARE in % ([1]; 80 g/ha) [%] | Pre-emergence efficacy against AMARE in % ([1]; 320 g/ha) [%] | Pre-emergence efficacy against AMARE in % ([1]; 1280 g/ha) [%] | Pre-emergence efficacy against VERPE ([2]; 320 g/ha) [%] | Pre-emergence efficacy against VIOTR in % ([3]; application rate 80 g/ha) [%] | Pre-emergence efficacy against VIOTR in % ([3]; application rate 320 g/ha) [%] | Pre-emergence efficacy against KCHSC [4, 9] [%] | Pre-emergence efficacy against KCHSC ([4]; pre-emergence, dosage 320 g/ha) [%] | Pre-emergence efficacy against KCHSC [4, 10] [%] | Pre-emergence efficacy against AMARE ([5]; 80 g/ha) [%] | Pre-emergence efficacy against AMARE ([5]; 320 g/ha) [%] | Post-emergence efficacy against POAAN ([6]; 320 g/ha) [%] | Post-emergence efficacy against POAAN ([6]; 1280 g/ha) [%] | Pre-emergence efficacy against LOLRI [7] [%] | Pre-emergence efficacy against ABUTH ([8]; 80 g/ha) [%] | Pre-emergence efficacy against ABUTH ([8]; 320 g/ha) [%] | Pre-emergence efficacy against ABUTH ([8]; 1280 g/ha) [%] | Pre-emergence efficacy against VERPE ([2]; 80 g/ha) [%] | Post-emergence efficacy against POAAN ([6]; 80 g/ha) [%]
1 | O=S(=O)(CCCCCl)Oc1ccccc1Oc1ncc(Cl)cn1 [Example I-15] | 100 | 100 | 100 | 80 | 100 | 100 | 100 | 100 | 100 | 90 | 100 | 90 | 90 | 80 | 100 | 100 | 100 |  | 
2 | O=S(=O)(CC1CC1)Oc1ccccc1Oc1ncc(Cl)cn1 [Example I-23] | 90 | 100 | 100 | 100 | 100 | 100 | 90 | 100 | 100 | 100 | 100 | 90 | 100 | 100 | 90 | 90 | 100 | 100 | 90
3 | O=S(=O)(CCC(F)(F)F)Oc1c(Cl)cccc1Oc1ncc(Cl)cn1 [Example I-38] | 100 | 100 | 100 | 100 | 100 | 100 |  | 100 | 100 | 100 | 100 |  | 90 | 100 | 100 | 100 | 100 | 100 | 
4 | O=S(=O)(CCCC(F)(F)F)Oc1c(Cl)cccc1Oc1ncc(Cl)cn1 [Example I-39] | 100 | 100 | 100 | 100 | 100 | 100 | 100 | 100 | 100 | 100 | 100 | 90 | 90 | 100 | 90 | 100 | 100 | 100 | 
5 | O=S(=O)(CCC(F)(F)F)Oc1c(F)cccc1Oc1ncc(Br)cn1 [Example I-40] | 100 | 100 | 100 | 100 | 100 | 100 | 100 | 100 | 100 | 100 | 100 | 90 | 90 | 100 | 100 | 100 | 100 | 100 | 
6 | O=S(=O)(CCCC(F)(F)F)Oc1c(F)cccc1Oc1ncc(Br)cn1 [Example I-41] | 100 | 100 | 100 | 100 | 100 | 100 | 100 | 100 | 100 | 100 | 100 | 90 | 90 | 100 |  | 100 | 100 | 100 | 
7 | O=S(=O)(CC1CC(F)(F)C1)Oc1c(F)cccc1Oc1ncc(Cl)cn1 [Example I-53] | 100 | 100 | 100 | 100 | 100 | 100 | 100 | 100 | 100 | 100 | 100 | 90 | 90 | 100 | 100 | 100 | 100 | 100 | 90
8 | O=S(=O)(CCC1CC1)Oc1c(F)cccc1Oc1ncc(Cl)cn1 [Example I-55] | 100 | 100 | 100 | 100 |  | 100 |  | 100 | 100 | 100 | 100 | 90 | 90 | 90 |  |  | 100 |  | 
9 | O=S(=O)(CCC(F)=C(F)F)Oc1c(Cl)cccc1Oc1ncc(Cl)cn1 [Example I-73] | 90 | 100 | 100 | 80 |  | 100 |  | 90 | 90 | 90 | 100 |  | 100 | 80 |  |  | 90 |  | 
